Measurements from US9822130B2, “Triazolo-pyrazinyl derivatives useful as soluble guanylate cyclase activators” (Merck Sharp & Dohme Corp., priority 2014, dated 2017).

target: T1, sGC α1/β1 heterodimer stably expressed in CHO-K1 cell line (CHO-K1/sGC) (Homo sapiens, UniProt Q02108+Q02153); test: Cell-based sGC Functional Assay (CASA Assay), cGMP generation; details: CHO-K1/sGC cells, 1 hr at 37° C., cGMP by HTRF, 4P fit; presence or absence of 1 μM DETA-NO not given; read-out: IP (nM) (inflection point)
T1 construct: expressed in transfected cells
T1 sequence (Q02108 1-690): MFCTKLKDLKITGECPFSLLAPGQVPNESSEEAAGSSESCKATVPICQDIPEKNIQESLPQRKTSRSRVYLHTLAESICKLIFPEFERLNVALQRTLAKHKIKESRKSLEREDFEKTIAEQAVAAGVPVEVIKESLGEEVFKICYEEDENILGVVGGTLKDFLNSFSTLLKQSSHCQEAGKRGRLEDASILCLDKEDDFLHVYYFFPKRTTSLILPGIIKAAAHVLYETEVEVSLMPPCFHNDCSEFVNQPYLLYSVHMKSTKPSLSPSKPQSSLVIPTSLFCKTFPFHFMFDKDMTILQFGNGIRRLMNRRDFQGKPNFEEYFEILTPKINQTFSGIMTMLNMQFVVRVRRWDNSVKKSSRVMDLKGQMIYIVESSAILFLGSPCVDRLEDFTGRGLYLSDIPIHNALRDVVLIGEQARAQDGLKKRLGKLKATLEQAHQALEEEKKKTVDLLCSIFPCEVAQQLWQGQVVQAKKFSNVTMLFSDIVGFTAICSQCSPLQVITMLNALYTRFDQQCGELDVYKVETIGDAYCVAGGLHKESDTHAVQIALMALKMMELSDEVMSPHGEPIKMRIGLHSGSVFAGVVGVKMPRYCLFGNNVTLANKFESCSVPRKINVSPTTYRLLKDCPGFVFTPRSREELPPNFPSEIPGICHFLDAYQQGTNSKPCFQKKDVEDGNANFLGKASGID
T1 sequence (Q02153 1-619): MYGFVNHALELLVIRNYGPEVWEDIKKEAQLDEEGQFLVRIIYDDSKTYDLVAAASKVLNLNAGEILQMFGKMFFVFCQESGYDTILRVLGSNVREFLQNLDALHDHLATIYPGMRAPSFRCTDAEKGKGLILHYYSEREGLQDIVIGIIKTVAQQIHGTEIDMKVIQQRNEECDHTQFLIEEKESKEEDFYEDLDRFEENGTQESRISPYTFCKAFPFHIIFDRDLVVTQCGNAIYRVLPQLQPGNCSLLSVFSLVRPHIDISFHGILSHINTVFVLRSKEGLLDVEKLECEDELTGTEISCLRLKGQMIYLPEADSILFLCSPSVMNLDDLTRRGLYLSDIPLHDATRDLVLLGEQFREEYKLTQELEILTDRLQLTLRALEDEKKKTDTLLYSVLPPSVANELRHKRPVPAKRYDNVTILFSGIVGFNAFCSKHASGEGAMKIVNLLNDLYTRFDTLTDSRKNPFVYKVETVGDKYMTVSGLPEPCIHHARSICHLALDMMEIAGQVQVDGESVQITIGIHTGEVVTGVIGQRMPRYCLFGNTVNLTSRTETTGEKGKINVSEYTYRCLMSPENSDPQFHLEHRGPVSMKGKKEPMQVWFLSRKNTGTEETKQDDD
Description: sGC is a heme-containing enzyme that converts GTP to secondary messenger cGMP. Increases in cGMP levels affect several physiological processes including vasorelaxation through multiple downstream pathways. […] Heme-dependent activators (HDAs) preferentially activate sGC containing a ferrous heme group. To determine the effect of sGC activators on enzyme activity, the CASA assay was developed to monitor the generation of cGMP in a cell line that stably expresses the heterodimeric sGC protein.
A CHO-K1 cell line stably expressing the sGC α1/β1 heterodimer was generated using a standard transfection protocol. CHO-K1 cells were transfected with plasmids pIREShyghsGCα1 and pIRESneo-hsGCβ1 simultaneously using FUGENE reagent. Clones that stably express both subunits were selected with hygromycin and neomycin for ˜2 weeks. Clone #7 was chosen for the assay and was designated CHO-K1/sGC. CHO-K1/sGC cells were maintained in F-K12 medium containing 10% heat-inactivated Fetal Bovine Serum (FBS), 100 μg/mL penicillin/streptomycin, 0.5 mg/mL hygromycin and 0.25 mg/mL G418. The cells were then cryopreserved in LN2. On the day of the assay, cells thawed and resuspended in EBSS Assay Buffer (Sigma, E3024) supplemented with 5 mM MgCl2, 10 mM HEPES (4-(2-hydroxyethyl)piperazine-1-ethanesulfonic acid) and 0.05% BSA (bovine serum albumin) (EAB) and cell density was then adjusted to 4×10^5/mL with EAB, IBMX (3-isobutyl-1-methylxanthin, 0.5 mM) was added to inhibit degradation of cGMP. Compounds were diluted from DMSO stock solutions and added to the assay at a final DMSO concentration of 2.5%. Cells were incubated with compounds in the presence and absence of 1 μM of Diethylenetriamine/nitric oxide adduct (DETA-NO; Sigma, 17018) for 1 hr at 37° C. At the end of the incubation period, the reaction was terminated and the cells were lysed with the detection reagents from Cisbio Kits. The level of intracellular cGMP was determined using an HTRF-based assay kit (CisBio, 62GM2PEC), which detects the displacement of a fluorescence labeled cGMP from its specific antibody. The cGMP produced by test compounds was directly compared to the maximum cGMP production (this value was set to equal 100% activation.) of the published sGC-HDA Compound A:
[drawing 300] (Example 1 in WO 2010/065275, published Jun. 10, 2010). The test compounds' activities were then expressed as a percentage of Compound A, the standard in every experiment. This percent activation was calculated either in the presence or absence of DETA-NO which was then plotted. IP and maximum fold induction was derived using ADA analysis software for 4P fit.
The compounds in the Examples of the instant invention had inflection points (IP) less than or equal to 10 μM and more particularly less than or equal to about 1 μM.

| EC50 | Structure (SMILES) |
| --- | --- |
| 278 nM | Nc1nc(-c2cn3ncnc3c(CCCC(F)(F)F)n2)nc2c1C(c1ccc(Cl)cn1)(C1CC1)C(=O)N2 (centres unmarked) [Example 27A, 4-amino-5-(5-chloropyridin-2-yl)-5-cyclopropyl-2-(8-(4,4,4-trifluorobutyl)-[1,2,4]triazolo[1,5-a]pyrazin-6-yl)-5H-pyrrolo[2,3-d]pyrimidin-6(7H)-one] |
| 20 nM | CC1(c2ccc(Cl)c(F)c2)C(=O)Nc2nc(-c3cn4ncnc4c(CCCC(F)(F)F)n3)nc(N)c21 (centres unmarked) [Example 28B, 4-amino-5-(4-chloro-3-fluorophenyl)-5-methyl-2-(8-(4,4,4-trifluorobutyl)-[1,2,4]triazolo[1,5-a]pyrazin-6-yl)-5H-pyrrolo[2,3-d]pyrimidin-6(7H)-one] |
| 11.4 nM | CC1(c2ccc(Cl)cc2)C(=O)Nc2nc(-c3cn4ncnc4c(CCCC(F)(F)F)n3)nc(N)c21 (centres unmarked) [Example 29A, 4-amino-5-(4-chlorophenyl)-5-methyl-2-(8-(4,4,4-trifluorobutyl)-[1,2,4]triazolo[1,5-a]pyrazin-6-yl)-5H-pyrrolo[2,3-d]pyrimidin-6(7H)-one] |
| 36.7 nM | Nc1nc(-c2cn3ncnc3c(CCCC(F)(F)F)n2)nc2c1C(c1ccc(F)cc1)(C1CC1)C(=O)N2 (centres unmarked) [Example 30B, 4-amino-5-cyclopropyl-5-(4-fluorophenyl)-2-(8-(4,4,4-trifluorobutyl)-[1,2,4]triazolo[1,5-a]pyrazin-6-yl)-5H-pyrrolo[2,3-d]pyrimidin-6(7H)-one] |
| 13 nM | Nc1nc(-c2cn3ncnc3c(CCCC(F)(F)F)n2)nc2c1C(c1ccc(Cl)cc1)(C1CC1)C(=O)N2 (centres unmarked) [Example 31B, 4-amino-5-(4-chlorophenyl)-5-cyclopropyl-2-(8-(4,4,4-trifluorobutyl)-[1,2,4]triazolo[1,5-a]pyrazin-6-yl)-5H-pyrrolo[2,3-d]pyrimidin-6(7H)-one] |
| 77.4 nM | Nc1nc(-c2cn3ncnc3c(CCCC(F)(F)F)n2)nc2c1C(c1ccc(F)c(F)c1)(C1CC1)C(=O)N2 (centres unmarked) [Example 32A, 4-amino-5-cyclopropyl-5-(3,4-difluorophenyl)-2-(8-(4,4,4-trifluorobutyl)-[1,2,4]triazolo[1,5-a]pyrazin-6-yl)-5H-pyrrolo[2,3-d]pyrimidin-6(7H)-one] |
| 5.6 nM | Nc1nc(-c2cn3ncnc3c(CCCC(F)(F)F)n2)nc2c1C(c1ccc(Cl)c(F)c1)(C1CC1)C(=O)N2 (centres unmarked) [Example 33A, 4-amino-5-(4-chloro-3-fluorophenyl)-5-cyclopropyl-2-(8-(4,4,4-trifluorobutyl)-[1,2,4]triazolo[1,5-a]pyrazin-6-yl)-5H-pyrrolo[2,3-d]pyrimidin-6(7H)-one] |
| 428 nM | Nc1nc(-c2cn3ncnc3c(CCCC(F)(F)F)n2)nc2c1C(c1ccc(F)cn1)(C1CC1)C(=O)N2 (centres unmarked) [Example 34A, 4-amino-5-cyclopropyl-5-(5-fluoropyridin-2-yl)-2-(8-(4,4,4-trifluorobutyl)-[1,2,4]triazolo[1,5-a]pyrazin-6-yl)-5H-pyrrolo[2,3-d]pyrimidin-6(7H)-one] |
| 416 nM | Nc1nc(-c2cn3ncnc3c(CCCC(F)(F)F)n2)nc2c1C(c1ccc(C(F)(F)F)cc1)(C1CC1)C(=O)N2 (centres unmarked) [Example 35A, 4-amino-5-cyclopropyl-2-(8-(4,4,4-trifluorobutyl)-[1,2,4]triazolo[1,5-a]pyrazin-6-yl)-5-(4-(trifluoromethyl)phenyl)-5H-pyrrolo[2,3-d]pyrimidin-6(7H)-one] |
| 56.5 nM | CC1(c2ccccn2)C(=O)Nc2nc(-c3cn4ncnc4c(CCCC(F)(F)F)n3)nc(N)c21 (centres unmarked) [Example 36B, 4-amino-5-methyl-5-(pyridin-2-yl)-2-(8-(4,4,4-trifluorobutyl)-[1,2,4]triazolo[1,5-a]pyrazin-6-yl)-5H-pyrrolo[2,3-d]pyrimidin-6(7H)-one] |
| 11.5 nM | CC1(c2ccccc2)C(=O)Nc2nc(-c3cn4ncnc4c(CCCC(F)(F)F)n3)nc(N)c21 (centres unmarked) [Example 37B, 4-amino-5-methyl-5-phenyl-2-(8-(4,4,4-trifluorobutyl)-[1,2,4]triazolo[1,5-a]pyrazin-6-yl)-5H-pyrrolo[2,3-d]pyrimidin-6(7H)-one] |
| 11 nM | CC1(c2ccc(F)c(F)c2)C(=O)Nc2nc(-c3cn4ncnc4c(CCCC(F)(F)F)n3)nc(N)c21 (centres unmarked) [Example 38B, 4-amino-5-(3,4-difluorophenyl)-5-methyl-2-(8-(4,4,4-trifluorobutyl)-[1,2,4]triazolo[1,5-a]pyrazin-6-yl)-5H-pyrrolo[2,3-d]pyrimidin-6(7H)-one] |
| 20.1 nM | COc1ccc(C2(C3CC3)C(=O)Nc3nc(-c4cn5ncnc5c(CCCC(F)(F)F)n4)nc(N)c32)nc1 (centres unmarked) [Example 39A, 4-amino-5-cyclopropyl-5-(5-methoxypyridin-2-yl)-2-(8-(4,4,4-trifluorobutyl)-[1,2,4]triazolo[1,5-a]pyrazin-6-yl)-5H-pyrrolo[2,3-d]pyrimidin-6(7H)-one] |
| 98.9 nM | COc1ccc(C2(C)C(=O)Nc3nc(-c4cn5ncnc5c(CCCC(F)(F)F)n4)nc(N)c32)nc1 (centres unmarked) [Example 40A, 4-amino-5-(5-methoxypyridin-2-yl)-5-methyl-2-(8-(4,4,4-trifluorobutyl)-[1,2,4]triazolo[1,5-a]pyrazin-6-yl)-5H-pyrrolo[2,3-d]pyrimidin-6(7H)-one] |
| 27.8 nM | Nc1nc(-c2cn3ncnc3c(CCCC(F)(F)F)n2)nc2c1C(c1ncc(Cl)cn1)(C1CC1)C(=O)N2 (centres unmarked) [Example 41A, 4-amino-5-(5-chloropyrimidin-2-yl)-5-cyclopropyl-2-(8-(4,4,4-trifluorobutyl)-[1,2,4]triazolo[1,5-a]pyrazin-6-yl)-5H-pyrrolo[2,3-d]pyrimidin-6(7H)-one] |
| 8.7 nM | CC1(c2ccc(F)c(Cl)c2)C(=O)Nc2nc(-c3cn4ncnc4c(CCCC(F)(F)F)n3)nc(N)c21 (centres unmarked) [Example 42B, 4-amino-5-(3-chloro-4-fluorophenyl)-5-methyl-2-(8-(4,4,4-trifluorobutyl)-[1,2,4]triazolo[1,5-a]pyrazin-6-yl)-5H-pyrrolo[2,3-d]pyrimidin-6(7H)-one] |
| 45.6 nM | CC1(c2ccc(C(F)F)cn2)C(=O)Nc2nc(-c3cn4ncnc4c(CCCC(F)(F)F)n3)nc(N)c21 (centres unmarked) [Example 43B, 4-amino-5-(5-(difluoromethyl)pyridin-2-yl)-5-methyl-2-(8-(4,4,4-trifluorobutyl)-[1,2,4]triazolo[1,5-a]pyrazin-6-yl)-5H-pyrrolo[2,3-d]pyrimidin-6(7H)-one] |
